Like-named read-outs stand apart in the source and are kept apart here. Each block holds one molecule with its values, some of them ahead of it.
Columns and labels:
[1] = design: method as in Literature (reference not given); settings: absorbed fraction of PAMPA-GIT controls; ref Literature (reference not given); cited from earlier work
[2] = PAMPA-GIT permeability; type: in vitro ADME; settings: for Fa%: PAMPA-GIT predicted absorbed fraction, 0–30% low, 30–69% medium, 70–100% high absorption; for Papp at 5 h, 0.5 mM: PAMPA-GIT, room temperature, read-out: Pe (Experimental)
Description: (§1) For this, two 96-well plates were placed one above the other, and between them, an artificial hydrophobic polyvinylidene fluoride (PVDF) membrane, which was impregnated with a lipid solution. The top plate works as the donor compartment and the bottom one as the receiver compartment.
Parallel artificial membrane permeation assay for gastrointestinal tract (GIT-PAMPA): 1% (w/v) phosphatidylcholine was mixed with dodecane as a lipid solution to impregnate the PVDF membrane between the donor and receiver plates to stimulate intestinal permeability. […] A total of 180 µL of the mixture of PBS and DMSO (v/v 95:5) was added to the recipient plate, and 180 µL of the test solution was added to the donor plate. Immediately and carefully, the donor plate was placed above the receiver plate and incubated for 5 h at room temperature. The solution captured on the receptor plate was removed and subsequently analyzed by a UV detector (SpectraMax 5®—Molecular Devices, Sao Jose, CA, USA). The experiments were performed in quadruplicate.

[3] = PAMPA-BBB permeability; type: in vitro ADME; settings: for Pe1 (Experimental): replicate 1; for Pe2 (Experimental): replicate 2; for Papp: PAMPA
Description: as §1
Parallel artificial membrane permeation assay for the blood–brain barrier (PAMPA-BBB): It was performed according to the previously reported [26] method established by Lu and coworkers [27].

[4] = test system: H-1975, non-small cell lung adenocarcinoma; assay: MTT cytotoxicity assay, H-1975; settings: Homo sapiens, NCI-H1975, 72 h, read-out: IC50 (95% CI) H-1975
Description: (§2) The cytotoxicity of the compounds was determined using the MTT assay [13]. Cells were seeded in 96-well plates as follows: 0.7 × 10^5 cells/well for adherent cancer cells, 0.3 × 10^5 cells/well for suspended cancer cells, and 0.2 × 10^5 cells/well for HPBMCs. […] The control group was treated with the vehicle. […] After incubation, the supernatant was decanted and replaced with fresh medium containing MTT (0.5 mg/mL).

[5] = test system: N-87, gastric carcinoma; assay: MTT cytotoxicity assay, N-87; settings: Homo sapiens, 72 h, read-out: IC50 (95% CI) N-87
Description: as §2

[6] = test system: PC-3, prostate adenocarcinoma; assay: MTT cytotoxicity assay, PC-3; settings: Homo sapiens, 72 h, read-out: IC50 (95% CI) PC-3
Description: as §2

[7] = test system: HPBMC, human peripheral blood mononuclear cells; assay: MTT cytotoxicity assay, HPBMC; type: cell-based; settings: PBMC, 72 h incubation, read-out: IC50 (95% CI) HPBMC
Description: Heparinized blood was collected from healthy, non-smoking donors who had not taken any drugs during the 15 days prior to sampling. Human peripheral blood mononuclear cells (HPBMC) were isolated by a standard density-gradient centrifugation method over Ficoll-Hypaque® media (Merck-Sigma-Aldrich, St. Louis, MO, USA). HPBMC were washed and resuspended in RPMI-1640 medium supplemented with 20% fetal bovine serum, 2 mM glutamine, 100 U/mL penicillin, and 100 µg/mL streptomycin at 37 °C with 5% CO2. Phytohemagglutinin (3%) was added at the beginning of the culture.
The cytotoxicity of the compounds was determined using the MTT assay. Cells were seeded in 96-well plates as follows: 0.7 × 10^5 cells/well for adherent cancer cells, 0.3 × 10^5 cells/well for suspended cancer cells, and 0.2 × 10^5 cells/well for HPBMCs. The treatments were dissolved in DMSO and added to each well using an automated liquid handler for high-throughput screening (Biomek 3000—Beckman Coulter, Inc., Fullerton, CA, USA) and incubated for either 24, 48, and 72 h. The control group was treated with the vehicle. […] After incubation, the supernatant was decanted and replaced with fresh medium containing MTT (0.5 mg/mL). Three hours later, the MTT’s formazan product was dissolved in 150 µL of pure DMSO, and absorbance was measured at 595 nm (DTX 880 Multimode Detector, Beckman Coulter, Inc., Pasadena, CA, USA).
Data were presented as mean ± standard error of the mean (SEM) from three independent experiments performed in triplicate, calculated using Prism 8.0 (GraphPad/Intuitive Software for Science, San Diego, CA, USA). The IC50 of the compounds was obtained using a non-linear regression of the cytotoxicity curves.

[8] = test system: MDA-MB435; design: method as in PMID 16722619, PMID 21488686; settings: lowest IC50 value among cancer cell lines; cited from earlier work
[9] = test system: PC-9, lung adenocarcinoma (overexpressed EGFR with L858R mutation); assay: MTT cytotoxicity assay, PC-9; settings: for SI HPBMC/PC-9: IC50 for HPBMC/IC50 for the tumor cell line
Description: as §2

[10] = test system: SF-295, glioblastoma; assay: MTT cytotoxicity assay, SF-295; settings: Homo sapiens, SF-295, 72 h, read-out: IC50 (95% CI) SF-295
Description: as §2

[11] = test system: HCT-116 human colorectal cancer cells (colon carcinoma); assay: MTT cytotoxicity assay, HCT-116; settings: for IC50: Homo sapiens; for SI HPBMC/HCT-116: IC50 for HPBMC/IC50 for the tumor cell line, 72 h
Description: as §2

[12] = test system: MCF-7; design: method as in PMID 23459143; settings: 24 h incubation; cited from earlier work
[13] = test system: MDA -MB231; design: method as in PMID 23459143; settings: 24 h incubation; cited from earlier work
[14] = Homo sapiens, 72 h, read-out: IC50 (95% CI) PC-9
[15] = HCT-116, 72 h, read-out: IC50 (95% CI) HCT-116

Fa% [2]: 100.0%
SMILES: O=C(O)Cc1ccccc1Nc1c(Cl)cccc1Cl [Diclofenac]
Fa (Literature) [1]: 100

SMILES: Cn1c(=O)c2c(ncn2C)n(C)c1=O [Caffeine]
Pe1 (Experimental) ([3]; PAMPA-BBB): 0.36 10–6 cm/s | Pe2 (Experimental) ([3]; PAMPA-BBB): −0.10 10–6 cm/s

SMILES: CCN(CC)CCNC(=O)c1c(C)[nH]c(/C=C2\C(=O)Nc3ccc(F)cc32)c1C [SUNITINIB, Sunitinib]
IC50 [4]: 4480 nM | IC50 [5]: 10900 nM

SMILES: COc1cc(C(=O)NN=Cc2ccccc2)cc(OC)c1OC [LASSBio-1586]
IC50 [6]: 920 nM | IC50 [7]: 1340 nM | IC50 [4]: 2830 nM | IC50 [8]: 64 nM | IC50 [9, 14]: 750 nM | SI HPBMC/PC-9 ([9]; 72 h): 1.8 | IC50 [5]: 820 nM | IC50 [10]: 260 nM | IC50 [11, 15]: 320 nM | SI HPBMC/HCT-116 [11]: 4.2

SMILES: CO/N=C(\C(=O)N[C@@H]1C(=O)N2C(C(=O)O)=C(CSc3nc(=O)c(=O)[nH]n3C)CS[C@H]12)c1csc(N)n1 [Ceftriaxone]
Fa (Literature) [1]: 1

Papp ([3]; PAMPA-BBB classification: absorbed by the Central Nervous System, read-out: CNS Permeability): < 1.13 ×10⁻⁶ cm/s | Papp ([3]; PAMPA-BBB, mean, read-out: Pe (Experimental Mean)): 0.3 ×10⁻⁶ cm/s | Pe1 (Experimental) ([3]; PAMPA-BBB): 0.48 10–6 cm/s | Pe2 (Experimental) ([3]; PAMPA-BBB): 0.06 10–6 cm/s
SMILES: CCn1cc(C(=O)O)c(=O)c2cc(F)c(N3CCNCC3)nc21 [Enoxacin]

SMILES: CCOc1cc2ncc(C#N)c(Nc3ccc(F)c(Cl)c3)c2cc1NC(=O)/C=C/CN(C)C [PELITINIB, Pelitinib]
IC50 [4]: 4400 nM | IC50 ([9]; read-out: IC50 (95% CI) PC-9, 72 h incubation, MTT): 530 nM | IC50 [5]: 330 nM

Papp at 5 h, 0.5 mM [2]: 26 ×10⁻⁶ cm/s
SMILES: O=c1ccc2ccccc2o1 [Coumarin]

Fa% [2]: 51.39%
SMILES: CCn1cc(C(=O)O)c(=O)c2cc(F)c(N3CCNCC3)cc21 [Norfloxacin]

Fa% [2]: 16.50% | Papp at 5 h, 0.5 mM [2]: 0.2 ×10⁻⁶ cm/s
SMILES: CNC(=C[N+](=O)[O-])NCCSCc1ccc(CN(C)C)o1 [Ranitidine]

SMILES: COc1ccc(/C=C\c2cc(OC)c(OC)c(OC)c2)cc1O [CA4, Combretastatin A-4]
IC50 [6]: 8 nM | IC50 [7]: 4.7 nM | IC50 [4]: 35 nM | IC50 [12]: 10 nM | IC50 ([9]; Homo sapiens, 24 h, read-out: IC50 (95% CI) PC-9 24 h): 2600 nM | IC50 ([9]; Homo sapiens, 48 h, read-out: IC50 (95% CI) PC-9 48 h): 1380 nM | IC50 [9, 14]: 110 nM | IC50 ([9]; Homo sapiens, 72 h, read-out: IC50 (95% CI) PC-9 72 h): 110 nM | SI HPBMC/PC-9 ([9]; 72 h): 0.043 | IC50 [5]: 3340 nM | IC50 [13]: 110 nM | IC50 [10]: 8 nM | IC50 ([11]; HCT-116, 48 h, read-out: IC50 (95% CI) HCT-116 48 h): 200 nM | IC50 [11, 15]: 2.1 nM | IC50 ([11]; HCT-116, 72 h, read-out: IC50 (95% CI) HCT-116 72 h): 2.1 nM | SI HPBMC/HCT-116 [11]: 2.24

From PMC10144566, “Pharmacokinetic Profile Evaluation of Novel Combretastatin Derivative, LASSBio-1920, as a Promising Colorectal Anticancer Agent” (Pharmaceutics, 2023)
